Measurements as given in US8178547B2, “Heterocyclic antiviral compounds” (Roche Palo Alto LLC, priority 2008, dated 2012).

Experiments:
[1] = biological target: T1, HCV polymerase (NS5B570n-Con1) (Hepatitis C virus genotype 1b, UniProt Q9WMX2); experiment: HCV NS5B RNA polymerase activity; assay type: biochemical, HCV Con1 strain
T1 construct: a 21 amino acid C-terminal deletion of full-length HCV polymerase; made in house; host or cells: E. coli BL21(DE3) pLysS, plasmid pET17b
Experimental: The enzymatic activity of HCV polymerase (NS5B570n-Con1) was measured as the incorporation of radiolabeled nucleotide monophosphates into acid insoluble RNA products. Unincorporated radiolabeled substrate was removed by filtration and scintillant was added to the washed and dried filter plate containing radiolabeled RNA product. The amount of RNA product generated by NS5B570n-Con1 at the end of the reaction was directly proportional to the amount of light emitted by the scintillant.
The HCV polymerase used in the enzymatic activity assay is a 21 amino acid C-terminal deletion of full-length HCV polymerase derived from HCV Con1 strain, genotype 1b (GenBank accession number AJ242654) (NS5B570n-Con1). The NS5B570n-Con1 was sub-cloned downstream to the T7 promoter of the plasmid expression construct pET17b and transformed into E. coli strain BL21(DE3) pLysS for protein expression. A single colony was used to start an innoculum for a 10 L culture in LB media supplemented with 100 μg/mL ampicillin at 37° C. Protein expression was induced by the addition of 0.25 mM isopropyl-β-D-thiogalactopyranoside (IPTG) when the optical density of the culture at […] was 0.8. Induction of protein expression was carried out at 30° C. for 16 h after which the cells were harvested by centrifugation. NS5B570n-Con1 was purified to homogeneity using a three-column purification protocol including subsequent column chromatography on Ni-NTA, SP-Sepharose HP and Superdex 75 resins.
[…] TRK-412; specific activity: 30 to 60 Ci/mmol;), 1 μM each ATP, CTP, and GTP, 40 mM Tris-HCl pH 8.0, 40 mM NaCl, 4 mM DTT (dithiothreitol), 4 mM MgCl2, 5 μl of compound serial diluted in DMSO, and nuclease-free water to a final reaction volume of 50 μl. Enzymatic reactions in the presence of poly A RNA template (see section 0004) contained 20 nM Poly A:oligo(rU)16 premixed (see section 0004), 20 nM NS5B570n-Con1 enzyme, 1 μCi of tritiated UTP (Perkin Elmer catalog no. TRK-412; specific activity: 30 to 60 Ci/mmol), 40 mM Tris-HCl pH 8.0, 40 mM NaCl, 4 mM DTT (dithiothreitol), 4 mM MgCl2, 5 μl of compound serial diluted in DMSO, and nuclease-free water to a final reaction volume of 50 μl. Reaction mixtures were assembled in 96-well filter plates (cat #MADVN0B, Millipore Co.) and incubated for 2 h at 30° C. Reactions were stopped by addition of 10% final (v/v) trichloroacetic acid and incubated for 40 min at 4° C. Reactions were filtered, washed with 8 reaction volumes of 10% (v/v) trichloroacetic acetic acid, 4 reaction volumes of 70% (v/v) ethanol, air dried, and 25 μl of scintillant (Microscint 20, Perkin-Elmer) was added to each reaction well.
Two RNA templates were used to assay compounds described herein. The cIRES RNA template was 377 nucleotide long and consisted of a partial complementary sequence (36 nucleotides) of the core protein, followed by 341 nucleotide of the complementary sequence of the internal ribosome entry site. The poly A RNA template (GE Amersham catalog number 27-4110) was a homopolymeric RNA pre-annealed to a oligo(rU)16 primer at a molar ratio of 3-to-1 (primer-template).
The amount of light emitted from the scintillant was converted to counts per minute (CPM) on a Topcount® plate reader (Perkin-Elmer, Energy Range: Low, Efficiency Mode: Normal, Count Time: 1 min, Background Subtract: none, Cross talk reduction: Off).
Data was analyzed in Excel® (Microsoft) and ActivityBase® (Idbs®). The reaction in the absence of enzyme was used to determine the background signal, which was subtracted from the enzymatic reactions. […] All data was expressed as a percentage of the positive control. The compound concentration at which the enzyme-catalyzed rate of RNA synthesis was reduced by 50%

[2] = NS5B pol inhibition IC50, as in Example 32 (20 nM RNA template)
[3] = NS5B pol inhibition IC50, cell values marked ^2, as in Example 32 except RNA template concentration 3 nM (footnote 3)

| Compound | melting point | IC50 [1, 2] | IC50 [1, 3] |
| --- | --- | --- | --- |
| COc1c(CCc2ccc(NC(C)=O)cc2)cc(-c2ncc[nH]c2=O)cc1C(C)(C)C [Compound I-2, N-(4-{2-[3-tert-Butyl-2-methoxy-5-(3-oxo-3,4-dihydro-pyrazin-2-yl)-phenyl]-ethyl}-phenyl)-acetamide] | 181 to 185 °C | 710 nM | – |
| COc1c(CCc2ccc(NS(C)(=O)=O)cc2)cc(-c2ncc[nH]c2=O)c(F)c1C(C)(C)C [Compound I-3, N-(4-{2-[3-tert-Butyl-4-fluoro-2-methoxy-5-(3-oxo-3,4-dihydro-pyrazin-2-yl)-phenyl]-ethyl}-phenyl)-methanesulfonamide] | 130 to 132 °C | 41 nM | – |
| CC(C)(C)c1cc(CCc2ccc(NS(C)(=O)=O)cc2)c(O)c(-c2ncc[nH]c2=O)c1 [Compound I-5, N-(4-{2-[5-tert-butyl-2-hydroxy-3-(3-oxo-3,4-dihydro-pyrazin-2-yl)-phenyl]-ethyl}-phenyl)-methanesulfonamide] | – | 92 nM | – |
| CC(C)(C)c1cc(/C=C/c2ccc(NS(C)(=O)=O)cc2)c(O)c(-c2ncc[nH]c2=O)c1 [Compound I-6, N-(4-{(E)-2-[5-tert-Butyl-2-hydroxy-3-(3-oxo-3,4-dihydro-pyrazin-2-yl)-phenyl]-vinyl}-phenyl)-methanesulfonamide] | 280 to 282 °C | 454 nM | – |
| COc1c(/C=C/c2ccc(NS(C)(=O)=O)cc2F)cc(-c2c[nH]c(=O)[nH]c2=O)cc1C(C)(C)C [Compound I-7, N-(4-{(E)-2-[3-tert-Butyl-5-(2,4-dioxo-1,2,3,4-tetrahydro-pyrimidin-5-yl)-2-methoxy-phenyl]-vinyl}-3-fluoro-phenyl)-methanesulfonamide] | – | 0.3 nM | – |
| COc1c(/C=C/c2ccc(NS(C)(=O)=O)cc2)cc(-c2cn(C)c(=O)[nH]c2=O)cc1C(C)(C)C [Compound I-8, N-(4-{(E)-2-[3-tert-Butyl-2-methoxy-5-(1-methyl-2,4-dioxo-1,2,3,4-tetrahydro-pyrimidin-5-yl)-phenyl]-vinyl}-phenyl)-methanesulfonamide] | > 300 °C | 1.3 nM | – |
| CC(C)(C)c1cc(/C=C/c2ccc(NS(C)(=O)=O)cc2)cc(-c2ncc[nH]c2=O)c1 [Compound I-10] | 283 to 285 °C | 7 nM | – |
| COc1c(/C=C/c2ccc(NS(C)(=O)=O)cc2)cc(-c2ncc[nH]c2=O)cc1C(C)(C)C [Compound I-11, N-(4-{(E)-2-[3-tert-Butyl-2-methoxy-5-(3-oxo-3,4-dihydro-pyrazin-2-yl)-phenyl]-vinyl}-phenyl)-methanesulfonamide] | – | 4 nM | – |
| Cc1cc(-c2ccn[nH]c2=O)cc(C(C)(C)C)c1 [Compound I-12] | 175 to 176 °C | 390 nM | – |
| COc1c(/C=C/c2ccccc2)cc(-c2ccn[nH]c2=O)cc1C(C)(C)C [Compound I-14] | 100 to 102 °C | 7 nM | – |
| CC(C)(C)c1cc(/C=C/c2ccc(NS(C)(=O)=O)cc2)cc(-c2ccn[nH]c2=O)c1 [Compound I-15] | – | 3 nM | – |
| COc1ccc(-c2ccn[nH]c2=O)cc1C(C)(C)C [Compound I-16] | 202 to 204 °C | 132 nM | – |
| COc1c(/C=C/c2ccc(NS(C)(=O)=O)cc2)cc(-c2cc(C)n[nH]c2=O)cc1C(C)(C)C [Compound I-17] | 292 to 294 °C | 10 nM | – |
| COc1c(NC(=O)c2ccc(N)cc2)cc(-c2ccn[nH]c2=O)cc1C(C)(C)C [Compound I-19, 4-Amino-N-[3-tert-butyl-2-methoxy-5-(3-oxo-2,3-dihydro-pyridazin-4-yl)-phenyl]-benzamide] | 174 to 176 °C | 15 nM | – |
| COc1c(NC(=O)c2ccc(NCC(F)(F)F)cc2)cc(-c2ccn[nH]c2=O)cc1C(C)(C)C [Compound I-20, N-[3-tert-Butyl-2-methoxy-5-(3-oxo-2,3-dihydro-pyridazin-4-yl)-phenyl]-4-(2,2,2-trifluoro-ethylamino)-benzamide] | 250 to 252 °C | 5 nM | 3 nM |
| CC1(C)COc2c(-c3ncc[nH]c3=O)cc(/C=C/c3ccc(NS(C)(=O)=O)cc3)cc21 [Compound I-23, N-(4-{(E)-2-[3,3-Dimethyl-7-(3-oxo-3,4-dihydro-pyrazin-2-yl)-2,3-dihydro-benzofuran-5-yl]-vinyl}-phenyl)-methanesulfonamide] | 302 to 304 °C | – | 19 nM |
| COc1c(/C=C/c2ccc(NS(C)(=O)=O)cc2)cc(-c2ccn[nH]c2=O)cc1C1CC1 [Compound I-26, N-(4-{(E)-2-[3-Cyclopropyl-2-methoxy-5-(3-oxo-2,3-dihydro-pyridazin-4-yl)-phenyl]-vinyl}-phenyl)-methanesulfonamide] | 269 to 271 °C | 2.1 nM | – |
| COc1c(/C=C/c2ccc(NS(C)(=O)=O)cc2)cc(-c2ccn[nH]c2=O)c2c1C(C)(C)CO2 [Compound I-27, N-(4-{(E)-2-[4-Methoxy-3,3-dimethyl-7-(3-oxo-2,3-dihydro-pyridazin-4-yl)-2,3-dihydro-benzofuran-5-yl]-vinyl}-phenyl)-methanesulfonamide] | – | 0.3 nM | – |
| COc1c(/C=C/c2ccc(NS(C)(=O)=O)cn2)cc(-c2c[nH]c(=O)[nH]c2=O)cc1C(C)(C)C [Compound I-29, N-(6-{(E)-2-[3-tert-Butyl-5-(2,4-dioxo-1,2,3,4-tetrahydro-pyrimidin-5-yl)-2-methoxy-phenyl]-vinyl}-pyridin-3-yl)-methanesulfonamide] | – | 1.2 nM | – |
| COc1c(-c2ccc3cc(NS(C)(=O)=O)ccc3c2)cc(-c2ncn[nH]c2=O)cc1C(C)(C)C [Compound I-37, N-{6-[3-tert-Butyl-2-methoxy-5-(6-oxo-1,6-dihydro-[1,2,4]triazin-5-yl)-phenyl]-naphthalen-2-yl}-methanesulfonamide] | – | 0.7 nM | – |
| COc1c(/C=C/c2ccc(NS(C)(=O)=O)cc2)cc(-c2c[nH]c(=O)[nH]c2=O)cc1CC(F)(F)F [Compound I-38, N-(4-{(E)-2-[5-(2,4-Dioxo-1,2,3,4-tetrahydro-pyrimidin-5-yl)-2-methoxy-3-(2,2,2-trifluoro-ethyl)-phenyl]-vinyl}-phenyl)-methanesulfonamide] | – | 1.4 nM | – |
| COCc1cc(NS(C)(=O)=O)ccc1/C=C/c1cc(-c2cnc(OC)[nH]c2=O)cc(C(C)(C)C)c1OC [Compound I-39, N-(4-{(E)-2-[3-tert-Butyl-2-methoxy-5-(2-methoxy-6-oxo-1,6-dihydro-pyrimidin-5-yl)-phenyl]-vinyl}-3-methoxymethyl-phenyl)-methanesulfonamide] | – | 0.9 nM | – |
| COc1c(/C=C/c2ccc(NS(C)(=O)=O)cc2)cc(-c2c(O)nc(C)[nH]c2=O)cc1C(C)(C)C [Compound I-41, N-(4-{(E)-2-[3-tert-Butyl-5-(4-hydroxy-2-methyl-6-oxo-1,6-dihydro-pyrimidin-5-yl)-2-methoxy-phenyl]-vinyl}-phenyl)-methanesulfonamide] | – | 0.4 nM | – |
| COc1c(/C=C/c2ccc(NS(C)(=O)=O)cc2)cc(-c2cnc(C)[nH]c2=O)cc1C(C)(C)C [Compound I-43, N-(4-{(E)-2-[3-tert-Butyl-2-methoxy-5-(2-methyl-6-oxo-1,6-dihydro-pyrimidin-5-yl)-phenyl]-vinyl}-phenyl)-methanesulfonamide] | – | 1.1 nM | – |
